The record followed here is the NIST ThermoML archive (doi:10.1021/je300076y).

In general, mass density refers to mass per unit of volume. The vapor or sublimation pressure is the equilibrium pressure above the liquid or solid. As a reminder, the refractive index is a measure of how strongly the sample bends light.

± gives the expanded uncertainty stated by the source.

The conditions of series [1]: Liquid; for mass density: 293.15 K, 101.33 kPa, Vibrating tube method.
The nature of series [2]: refractive index (Na D-line) (dimensionless). Particulars: 101.33 kPa, Liquid, Standard Abbe refractometry.

As for `CC(C)(C)O` [2-methylpropan-2-ol], in series [1], the mass density was determined as 788.4 ± 0.3 kg/m3. Also, the “vapor or sublimation pressure” value in series [1] (353.61 K) and in series [1] (353.71 K) was 95.5 ± 2.5 kPa throughout. Also, in series [2] (293.15 K), the refractive index was found to be 1.3877 ± 0.0007.
As to `CC(=O)c1ccccc1` [acetophenone], the mass density in series [1] is listed as 1024.5 ± 0.3 kg/m3. In series [1] (472.25 K), the “vapor or sublimation pressure” value came to 95.5 ± 2.5 kPa. Moreover, the refractive index in series [2] (293.1 K) worked out at 1.537 ± 0.0008.
Consider `CCO[Si](OCC)(OCC)OCC` [tetraethoxysilane], for which, in series [1], the mass density was determined as 935 ± 0.3 kg/m3. Also, in series [1] (439.35 K), the “vapor or sublimation pressure” value came out at 95.5 ± 2.5 kPa. In series [2] (293.15 K), the refractive index is 1.3835 ± 0.0007.
